The data set is described as follows: Prevention of discoloration of EGCG solutions (absorbance at 492 nm). The settings on record: for protection of EGCG from discoloration by reducing agent: further experiments at the observed pH ranges (data not shown). The class given is physicochemical. The protocol: Discoloration was measured using a spectrophotometer at a fixed wavelength of 492 nm. More specifically, solutions of EGCG (2 mM) and NAC (4 mM) were prepared in McIlvaine buffer at various pH levels in 1.0 increments between pH 3.0 to pH 7.0. A control experiment was set up without NAC but otherwise identical conditions. The so prepared solutions were incubated at 55° C. and the discoloration was measured at 492 nm over the next 15 days.

As to `CC(=O)N[C@@H](CS)C(=O)O` [NAC, N-acetyl cysteine], the “protection of EGCG from discoloration by reducing agent” value (“protection of EGCG … by reducing agent” for short) is “prevented discoloration”. For the same compound, the “discoloration measured at 492 nm” value (EGCG (2 mM) and NAC (4 mM) in McIlvaine buffer, pH levels of less than 6.0, 55° C., over 15 days, versus control without NAC) is given as “substantially reduced”. On to `N[C@@H](CS)C(=O)O` [cysteine], for which the “protection of EGCG … by reducing agent” value is “failed to provide significant protection from discoloration”.

`N[C@@H](CCC(=O)N[C@@H](CS)C(=O)NCC(=O)O)C(=O)O` [glutathione]: the “protection of EGCG … by reducing agent” value is “prevented discoloration”.

For the origin of these results see patent US20120142947A1, “Stabilized 3-Hydroxyflavan Compositions and Methods Therefor” (priority 2005, published 2012).
